Test [1] deals with T1, S100B (Homo sapiens, UniProt P04271).
T1 construct: made in house; host or cells: Escherichia coli BL21(DE3)
T1 sequence (P04271 1-92): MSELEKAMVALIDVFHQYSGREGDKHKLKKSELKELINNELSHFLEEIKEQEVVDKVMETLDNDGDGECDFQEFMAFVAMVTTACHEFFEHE
The experiment in a line: Pull-down assay with immobilized protein and LSM libraries. The note with it: for Kd: H14 library, 1:1 binding assumed, read-out: Surface mapping KD (apparent); for Affinity class of probe (high, medium, low) in pull-down: H14 probes selected for validation. It is filed as binding. The method in brief: (§1)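 Buffers were HEPES pH 7.4 with 150 mM NaCl, plus 1 mM TCEP and 1 mM CaCl2 (50 mM HEPES) for S100A4 and S100B, 1 mM TCEP for Gal-1, and no additive for RecQ-WH. Immobilized protein at 64 µM was equilibrated 30 min with the LSM sublibrary, and unbound probes were measured by LC-MS.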

The target of another test is T2, S100A4 (Homo sapiens, UniProt P26447).
T2 construct: made in house; host or cells: Escherichia coli BL21(DE3)
Described as above. The note with it: for Kd: H14 library, 1:1 binding assumed, read-out: Surface mapping KD (apparent); for Affinity class of probe (high, medium, low) in pull-down: H14 probes selected for validation. It is filed as binding. The gist of the method:
as §1

The target in test [2] is T3, CaM (Bos taurus, UniProt P62157).
T3 construct: made in house; host or cells: E. coli BL21 (DE3)
The experiment in a line: Competition pull-down with native ligand TRPV1-Ct15. It is filed as binding, bovine. The note with it: H14 library; competitor peptide 200 µM; read-out: Surface mapping KD (apparent), competition.

For another test, the target named is T4, RecQ-WH (Escherichia coli, UniProt P15043).
T4 construct: coding for residues 408– 523 of E. coli RecQ; made in house; host or cells: E. coli BL21(DE3)
In words: Pull-down assay with immobilized protein and LSM libraries. The note with it: H14 library; 1:1 binding assumed; read-out: Surface mapping KD (apparent). Set-up: species or system E. coli. How it is done: Pull-down assays with immobilized test proteins and foldameric LSM libraries were carried out. Proteins were equilibrated with LSM probes, and equilibrium bound fractions (FB) were determined from the unbound fractions measured by HPLC-MS methods. Hits were corrected with background binding of the resin. The protocol allowed all binding events to equilibrate irrespective of affinity, specificity, and binding kinetics. This was essential to judge overall druggability and promiscuity. Importantly, the concentration of protein and the total concentration of foldameric LSMs were equimolar, which minimized competition between the probes. This experimental setup approximated independent binding of individual library members. Results were visualized as heat maps of dissociation constants (Fig. 3).
Pull-down assay and data analysis
Pull-down assay. LSM sublibraries were screened separately as previously described.(2) Experiments were performed in the following buffers: (i) 20 mM pH 7.4 HEPES, 150 mM NaCl, 5 mM CaCl2 for CaM; (ii) 50 mM pH 7.4 HEPES, 150 mM NaCl, 1 mM TCEP, 1 mM CaCl2 for S100 proteins; (iii) 20 mM pH 7.4 HEPES, 150 mM NaCl, 1 mM TCEP for Gal-1 and (iv) 20 mM pH 7.4 HEPES, 150 mM NaCl for RecQ-WH. Assays were performed in paper filter spin cups (Thermo Scientific) with sample volumes of 100 µl. Hexahistidine-tagged proteins were immobilized on previously washed Co-NTA resin (TALON, Takara Bio USA, Inc., Mountain View, CA) in 64 µM final concentration. LSM sublibrary was added, in which each of the 64 library members were used at a concentration of 1 µM. Samples were incubated at room temperature for 30 min with shaking at 100 rpm. Then, samples were centrifuged at 1000 rpm for 2 min and washed with 100 µl pull-down buffer to remove unbound compounds.
The control experiments were performed using the same compounds and the resin but without the immobilized protein. In case of competitive assays, competitor peptides were added to LSM sublibrary samples in 200 µM final concentration. In the case of Gal-1, lactose (competitor) was used in a concentration of 10 mM. Experiments were performed at least twice. Mean […]
LC-MS methods and parameters. HPLC/ESI-MS analysis was used to characterize the samples from the pull-down assay. LC-MS analysis was performed with a Thermo Scientific Dionex UltiMate 3000 HPLC system interfaced to an LTQ ion trap mass spectrometer (Thermo Electron Corp., San Jose, CA, USA). Samples were injected onto an Aeris Widepore XB-C18 (250 x 4.6 mm) analytical HPLC column using gradient elution 5-80 % solution B during 25 minutes. For pull-down samples, eluent composition was 0.1% acetic acid in distilled water (Solution A) and 0.1% acetic acid in acetonitrile (solution B). Mass spectra were acquired in full scan mode from 200 to 2000 m/z range. For overlapping peaks, selective reaction monitoring (SRM) was […]
MS data analysis. Thermo Xcalibur 2.2 software was used for peak identification and integration. The majority of the foldameric fragments could be resolved independently via HPLC-MS/MS measurements based on molecular weight, MS fragmentation pattern and retention time. Peaks of some foldamers with β3-hIle or β3-hLeu in position R2 could not be resolved, these were integrated and averaged. In the processing method, each sample component was associated to a chromatographic peak based on previously identified mass (m/z) and retention time (ref (2) and Table S7-10). Using ICIS peak detection algorithm, the general detection and integration criteria were: smoothing points: 5, baseline window: 80, area noise factor: 5, peak noise factor: 10. Using these processing setups, all raw data files were reprocessed together and analyzed. Errors in peak identification during the automatic processing were corrected manually.
Calculation of the discussed parameters
1. Bound fractions (FB.) were calculated from the HPLC-MS intensity loss of the LSM probes compared to the control where no protein was immobilized to the resin: […]

The target of test [3] is T3, CaM. The test is described as above. The note with it: H14 library; 1:2 stoichiometry assumed; read-out: Surface mapping KD (apparent). It is filed as binding, bovine. The method in brief:
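CaM buffer was 20 mM HEPES pH 7.4, 150 mM NaCl, 5 mM CaCl2. LSM sublibrary members ([…]) incubated 30 min, RT, with equimolar His-tagged protein on Co-NTA resin. HPLC-MS measured unbound probes; bound fraction relative to resin-only background gave dissociation constants.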

Test [4] concerns the target T5, Gal-1 (Homo sapiens, UniProt P09382).
T5 construct: made in house; host or cells: E. coli BL21(DE3)
The description is as above. It is filed as binding. The note with it: H14 library; 1:1 binding assumed; read-out: Surface mapping KD (apparent). The method in brief:
as §1

Test [5] concerns the target T5, Gal-1. In words: Competition pull-down with lactose. It is filed as binding. The note with it: H14 library; lactose 10 mM; read-out: Surface mapping KD (apparent), competition. The gist of the method: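 His6-tagged proteins immobilized on Co-NTA resin at 64 µM final with 64-member LSM foldamer sublibraries (1 M each, as printed) in pH 7.4 HEPES/NaCl buffers (Ca2+/TCEP per target), 30 min RT; competitor peptides 200 µM final, lactose 10 mM for Gal-1. Bound fractions from LC-MS loss vs protein-free resin; KD assuming 1:1 binding.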

Test [6] has as its target T1, S100B. In words: Competition pull-down with native ligand RSK1 (689–735). The note with it: H14 library; competitor peptide 200 µM; read-out: Surface mapping KD (apparent), competition. It is filed as binding.

T4 sequence (P15043 408-523): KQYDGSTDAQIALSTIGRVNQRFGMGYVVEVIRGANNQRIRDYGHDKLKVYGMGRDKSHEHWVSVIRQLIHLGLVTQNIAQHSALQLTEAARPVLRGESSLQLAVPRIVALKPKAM
T5 sequence (P09382 whole entry): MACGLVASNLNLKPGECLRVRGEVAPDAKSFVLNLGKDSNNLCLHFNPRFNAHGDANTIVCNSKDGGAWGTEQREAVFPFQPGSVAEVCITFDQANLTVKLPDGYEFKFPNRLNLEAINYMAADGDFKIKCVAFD
T2 sequence (P26447 whole entry): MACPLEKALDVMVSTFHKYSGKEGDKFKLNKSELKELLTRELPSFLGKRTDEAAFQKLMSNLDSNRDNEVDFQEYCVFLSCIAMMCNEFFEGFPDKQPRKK

For `NC(=O)CC[C@@H](CC(=O)N[C@H]1CCCC[C@@H]1C(N)=O)NC(=O)[C@H]1CCCC[C@@H]1NC(=O)[C@H]1CCCC[C@@H]1NC(=O)C[C@H](Cc1c[nH]c2ccccc12)NC(=O)[C@H]1CCCC[C@@H]1N` [H14 WQ], the Kd was determined as 161 µM at S100B [1]; 191 µM at S100A4; 495 µM at CaM [2]; 473 µM at RecQ-WH; 16 µM at CaM [3].
In the case of `N=C(N)NCCC[C@@H](CC(=O)N[C@H]1CCCC[C@@H]1C(=O)N[C@H]1CCCC[C@@H]1C(=O)N[C@H](CC(=O)N[C@H]1CCCC[C@@H]1C(N)=O)Cc1ccccc1)NC(=O)[C@H]1CCCC[C@@H]1N` [H14 RF], the Kd worked out at 16 µM on S100B [1]; 65 µM on S100A4; 350 µM on CaM [2]; 231 µM on RecQ-WH; 4 µM at CaM [3]. Further, the “Affinity class of probe (high, medium, low) in pull-down” value on S100B [1] is on record as “high”; on S100A4 it was “medium”.
For the compound `CSCC[C@@H](CC(=O)N[C@H]1CCCC[C@@H]1C(=O)N[C@H]1CCCC[C@@H]1C(=O)N[C@@H](CCCNC(=N)N)CC(=O)N[C@H]1CCCC[C@@H]1C(N)=O)NC(=O)[C@H]1CCCC[C@@H]1N` [H14 MR], the Kd came out at 92 µM at S100B [1]; 247 µM on S100A4; 395 µM at Gal-1 [4]; 310 µM on Gal-1 [5]; 457 µM at RecQ-WH; 19 µM on CaM [3].
Regarding `N=C(N)NCCC[C@@H](CC(=O)N[C@H]1CCCC[C@@H]1C(N)=O)NC(=O)[C@H]1CCCC[C@@H]1NC(=O)[C@H]1CCCC[C@@H]1NC(=O)C[C@H](Cc1ccc(O)cc1)NC(=O)[C@H]1CCCC[C@@H]1N` [H14 YR], the Kd worked out at 67 µM at S100B [1]; 117 µM at S100A4; 377 µM at Gal-1 [4]; 309 µM on Gal-1 [5]; 117 µM on CaM [2]; 421 µM at RecQ-WH. For the same compound, the Kd at CaM [3] was 11 µM.
Consider `N=C(N)NCCC[C@@H](CC(=O)N[C@H]1CCCC[C@@H]1C(N)=O)NC(=O)[C@H]1CCCC[C@@H]1NC(=O)[C@H]1CCCC[C@@H]1NC(=O)C[C@H](CCCNC(=N)N)NC(=O)[C@H]1CCCC[C@@H]1N` [H14 RR], for which the Kd was 18 µM at S100B [1], 103 µM on CaM [2], 355 µM at RecQ-WH and 10 µM at CaM [3]. The “Binding” value is “binds” at S100B [1] (H14 probes) and “does not” at S100A4 (H14 probes). Besides, the results for the “Affinity class of probe (high, medium, low) in pull-down” value on S100B [1] and at S100A4 were “high” and “low”, respectively.
With `N=C(N)NCCC[C@@H](CC(=O)N[C@H]1CCCC[C@@H]1C(N)=O)NC(=O)[C@H]1CCCC[C@@H]1NC(=O)[C@H]1CCCC[C@@H]1NC(=O)C[C@H](CCCCN)NC(=O)[C@H]1CCCC[C@@H]1N` [H14 KR], the Kd on S100B [1] worked out at 22 µM; at Gal-1 [5], 323 µM; on CaM [2] it was 249 µM; at RecQ-WH it was 486 µM; on CaM [3] it was 22 µM.
Consider `C[C@@H](CC(=O)N[C@H]1CCCC[C@@H]1C(N)=O)NC(=O)[C@H]1CCCC[C@@H]1NC(=O)[C@H]1CCCC[C@@H]1NC(=O)C[C@H](CCCNC(=N)N)NC(=O)[C@H]1CCCC[C@@H]1N` [H14 RA], for which the Kd was 188 µM on S100B [1], 449 µM at CaM [2], 456 µM on RecQ-WH and 111 µM at CaM [3].
In the case of `CC(C)[C@@H](CC(=O)N[C@H]1CCCC[C@@H]1C(N)=O)NC(=O)[C@H]1CCCC[C@@H]1NC(=O)[C@H]1CCCC[C@@H]1NC(=O)C[C@H](CCCCN)NC(=O)[C@H]1CCCC[C@@H]1N` [H14 KV], the Kd amounted to 102 µM at S100B [1]; 71 µM on S100A4; 376 µM on CaM [2]; 442 µM at RecQ-WH; 50 µM on CaM [3].
For the compound `NC(=O)[C@H]1CCCC[C@@H]1NC(=O)C[C@H](Cc1ccccc1)NC(=O)[C@H]1CCCC[C@@H]1NC(=O)[C@H]1CCCC[C@@H]1NC(=O)C[C@H](CO)NC(=O)[C@H]1CCCC[C@@H]1N` [H14 SF], the Kd on S100B [1] was determined as 105 µM; on S100A4, 71 µM; on Gal-1 [4], 267 µM; at Gal-1 [5] it was 312 µM; on RecQ-WH it was 182 µM; at CaM [3], 30 µM.
Consider `NC(=O)[C@H]1CCCC[C@@H]1NC(=O)C[C@H](CO)NC(=O)[C@H]1CCCC[C@@H]1NC(=O)[C@H]1CCCC[C@@H]1NC(=O)C[C@H](Cc1ccccc1)NC(=O)[C@H]1CCCC[C@@H]1N` [H14 FS], for which the Kd at S100B [1] is 364 µM; at S100A4, 111 µM; at S100B [6], 429 µM; at RecQ-WH, 303 µM; on CaM [3], 15 µM.
`NC(=O)[C@H]1CCCC[C@@H]1NC(=O)C[C@H](Cc1c[nH]c2ccccc12)NC(=O)[C@H]1CCCC[C@@H]1NC(=O)[C@H]1CCCC[C@@H]1NC(=O)C[C@H](CC(=O)O)NC(=O)[C@H]1CCCC[C@@H]1N` [H14 DW]: the Kd was 200 µM on S100B [1], 439 µM on CaM [2] and 165 µM on RecQ-WH.
With `N=C(N)NCCC[C@@H](CC(=O)N[C@H]1CCCC[C@@H]1C(=O)N[C@H]1CCCC[C@@H]1C(=O)N[C@@H](CCCCN)CC(=O)N[C@H]1CCCC[C@@H]1C(N)=O)NC(=O)[C@H]1CCCC[C@@H]1N` [H14 RK], the Kd was 22 µM at S100B [1]; 323 µM on Gal-1 [5]; 249 µM at CaM [2]; 486 µM on RecQ-WH; 22 µM at CaM [3].

For the origin of these results see publication PMC8162404, “Proteomimetic surface fragments distinguish targets by function” (Chemical Science, 2020).
